Measurements reported in patent US5312625A, “Fused 7-membered cyclic compound and antipsychotic preparation containing the same” (Suntory Limited, priority 1990, dated 1994).

molecular target: T1, serotonin receptor (Rattus norvegicus, UniProt P19327); test: Affinity for serotonin receptor, [3H]8-OHDPAT binding test in rat cerebral cortex; parameters: species or system rat (Wistar-strain male); details: [3H]8-OHDPAT 0.4 nM; rat cerebral cortex membranes; pH 7.4; 25° C., 30 minutes; read-out: [^3 H]-8-OH-DPAT IC50
T1 construct: To a cerebral cortex nucleated from a Wistar-strain male rat; from tissue; host or cells: cerebral cortex of male Wistar rat (membrane preparation)
T1 sequence (P19327 1-422): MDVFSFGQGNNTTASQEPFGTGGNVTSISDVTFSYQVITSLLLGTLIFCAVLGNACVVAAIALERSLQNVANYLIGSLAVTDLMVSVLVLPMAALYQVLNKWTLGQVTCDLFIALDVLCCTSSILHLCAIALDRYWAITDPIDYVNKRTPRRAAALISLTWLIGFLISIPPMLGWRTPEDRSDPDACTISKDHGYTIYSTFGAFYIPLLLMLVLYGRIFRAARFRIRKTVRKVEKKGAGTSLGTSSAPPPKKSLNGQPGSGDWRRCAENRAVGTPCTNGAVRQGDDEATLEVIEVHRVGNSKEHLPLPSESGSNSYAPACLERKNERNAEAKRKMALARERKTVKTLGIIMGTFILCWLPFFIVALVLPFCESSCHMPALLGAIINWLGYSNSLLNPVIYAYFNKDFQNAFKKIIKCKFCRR
Procedure: The experiment was carried out according to the method of S. T. Perouka (J. Neurochem., 47, 529-540 (1986)).
To a cerebral cortex nucleated from a Wistar-strain male rat was added 50 mM Tris-HCl (pH 7.7) buffer, and the mixture was homogenized by a Polytron®. The homogenate was centrifuged at 40,000 G for 10 minutes, and the same buffer was added to the precipitate obtained, followed by homogenization and incubation at 37° C. for 30 minutes. The suspension was again subjected to centrifugation at 40,000 G for 10 minutes, and the same buffer was added to the precipitate, followed by homogenization and a further centrifugation at 40,000 G for 10 minutes. To the final precipitate obtained was added 50 mM Tris-HCl (10 μM pargyline, 4 mM CaCl2 0.1% ascorbic acid) (pH 7.4), and the mixture was homogenized and used for the binding test. The [^3 H]8-OHDPAT used for the binding test was 0.4 nM, with the protein amount being 0.4 to 0.6 mg/ml and the total amount 1 ml. After incubation at 25° C. for 30 minutes, the mixture was filtered by the filtration method, using the Whatman GF/B filter, and the filter was washed 3 times with 5 ml of the same buffer. To the filter was added a scintillation cocktail, followed by a measurement by a liquid scintillation counter.

Compared with `O=C1CSc2ccccc2C(=O)N1CCCCN1CCN(c2ccccc2)CC1` [Example 17], `O=C1CSc2ccccc2C(=O)N1CCCCN1CCN(c2ccccn2)CC1` [Example 18, 4-(4-(4-(2-pyridyl)piperazinyl)butyl)-2,3,4,5-tetrahydro-1,4-benzothiazeoine-3,5-dione] is 2.8-fold lower in IC50: 9.29 nM for the first, 3.28 nM for the second.

First: O=C1CSc2ccccc2C(=O)N1CCCCN1CCN(c2ncccn2)CC1 [Example 19, 4-(4-(4-(2-pyrimidinyl)piperadinyl)butyl)-2,3,4,5-tetrahydro-1,4-benzothiazepine-3,5-dione]
Second: O=C1CNc2ccccc2C(=O)N1CCCCN1CCN(c2ncccn2)CC1 [Example 22, 4-(4-(4-(2-pyrimidinyl)piperazinyl)butyl)-2,3,4,5-tetrahydro-1,4-benzodiazepine-3,5-dione]
The IC50 of the first is 4.7-fold lower: 14.3 nM for the first, 67.3 nM for the second.

`O=C1CNc2ccccc2C(=O)N1CCCCN1CCN(c2ccccn2)CC1` [Example 21, 4-(4-(4-(2-pyridyl)piperazinyl)butyl)-2,3,4,5-tetrahydro-1,4-benzodiazepine-3,5-dione] and `O=C1CCc2ccccc2C(=O)N1CCCCN1CCN(c2ccccn2)CC1` [Example 27, 2-(4-(4-(2-pyridyl)piperazinyl)butyl)-1,3,4,5-tetrahydro-2-benzazepine-1,3-dione] are within 1.5-fold of each other in IC50: 13.3 nM for the first, 17.1 nM for the second.

Going from `CN1CC(=O)N(CCCCN2CCN(c3ccccn3)CC2)C(=O)c2ccccc21` [Example 24, 1-methyl-4-(4-(4-(2-pyridyl)piperazinyl)butyl)-2,3,4,5-tetrahydro-1,4-benzodiazepine-3,5-dione] to `CN1CC(=O)N(CCCCN2CCN(c3ncccn3)CC2)C(=O)c2ccccc21` [Example 25], the IC50 rises from 61.4 nM to 270 nM (4.4-fold). The first is the more potent here.

`O=C1CCc2ccccc2C(=O)N1CCCCN1CCN(c2ncccn2)CC1` [Example 28, 2-(4-(4-(2-pyrimidinyl)piperazinyl)butyl)-1,3,4,5-tetrahydro-2-benzazepine-1,3-dione] gave an IC50 of 58.4 nM.
